system: JAK kinase (JAK1 and JAK3); assay: IL-4 activation assay: CD23 upregulation in IL-4 stimulated Ramos B-cells, FACS; assay type: cell-based, human; conditions: TABLE 1; IC50 CHMC degranulation / IC50 IL-4 Ramos CD23; minimum ratio, calculated using Syk IC50 of 50 μM (upper limit of assay)
Procedure: The selectivity of the compounds illustrated in TABLES 1 and 2 for JAK kinases as compared to Syk kinase was confirmed in cellular assays designed to test for JAK and Syk inhibition. Briefly, JAK inhibition was tested in human Ramos B-cells activated with IL-4. Twenty to 24 hours post stimulation, the cells are stained for upregulation of CD23 and analyzed by FACS. Stimulation of the B-cells with IL-4 leads to the activation of the JAK/STAT pathway through phosphorylation of the JAK kinase JAK1 and JAK3, which in turn phosphorylate and activate transcription of factor […].
For the assay, human Ramos B-cells (ATCC, Catalog No. CRL-1596) are cultured in RPMI 1640 medium (Cellgro, Catalog No. 10-040-CM) containing 10% fetal bovine serum (JRH, Catalog No. 12106-500M) according to the propagation protocol supplied with the cells, and maintained at a density of approximately 3.5×10^5 cells/ml. The day before the assay, the cells are diluted to 3.5×10^5 cells/ml to insure they are in the logorithmic growth phase. The cells are spun down, and suspended in RPMI 1640 medium containing 5% fetal bovine serum to a density of 3.5×10^4 cells/ml and aliquots dispensed into a 96-well tissue culture plate. Cells are incubated with test compound (dissolved in DMSO) or DMSO (control) for 1 hr at 37° C. and then stimulated with IL-4 (Pepotech, Catalog No. 200-04) for 20-24 hours (final concentration is 50 Units/ml). Cells are then spun down, stained with anti-CD23-PE antibody (BD Pharmigen, Catalog No.555711) and analyzed by FACS.

Row | Compound | IC50 Ratio (Syk/JAK)
1 | COC(=O)c1cc(Nc2ncc(F)c(Nc3ccc4c(c3)OCCO4)n2)cc(-c2ncco2)c1 [Cmpd 5] | 105
2 | CNC(=O)C1=Cc2cccc(Nc3ncc(F)c(Nc4cc(C)cc(C)c4)n3)c2C1 [Cmpd 13] | 26
3 | CC(=O)N(C)c1ccc(Nc2ncc(F)c(N3CCN(C)CC3)n2)cc1 [Cmpd 20] | 14
4 | CNC(=O)n1ccc2ccc(Nc3nc(Nc4cc(C)cc(C)c4)ncc3F)cc21 [Cmpd 7] | 57
5 | Cc1ccc(Nc2ccnc(Nc3ccc(C)c([N+](=O)[O-])c3)n2)cc1[N+](=O)[O-] [Cmpd 3] | 147
6 | Cc1cc(Nc2ncc(F)c(NC3CCCC3C(N)=O)n2)ccc1N1CCN(C)CC1 (centres unmarked) [Cmpd 2] | 155
7 | CCNC(=O)Nc1ccc(Nc2ncc(F)c(Nc3ccc(NC(=O)NCC)cc3)n2)cc1 [Cmpd 9] | 47
8 | Cc1cc(Nc2ncc(F)c(N[C@@H]3CC=CC[C@H]3C(N)=O)n2)ccc1N1CCN(C)CC1 [Cmpd 14] | 25
9 | COc1ccc(Nc2nc(Nc3cc(Cl)c(OC)c(Cl)c3)ncc2F)cc1Cl [Cmpd 21] | 14
10 | CCOC(=O)c1cnc(Nc2ccc3[nH]ncc3c2)nc1Nc1ccc2[nH]ncc2c1 [Cmpd 10] | 43
11 | CC(C)Nc1nc(Nc2cccc(N3CCN(C)CC3)c2)ncc1F [Cmpd 11] | 38
12 | CNC(=O)COc1cccc(Nc2ncc(F)c(Nc3ccc(OC)c(CN(C(=O)OC(C)(C)C)C(C)C)c3)n2)c1 [Cmpd 22] | 13
13 | COC(=O)c1ccc(Nc2ncc(F)c(Nc3ccc(OC)c(Cl)c3)n2)cc1 [Cmpd 25] | 13
14 | Fc1cnc(Nc2ccc3c(c2)OCCO3)nc1NC1CCCCC1 [Cmpd 19] | 15
15 | CN1CCN(c2ccc(Nc3ncc(F)c(NC4CC(C)(C)N(C)C(C)(C)C4)n3)cc2Cl)CC1 [Cmpd 1] | 207

Other lines, results leading:

Row | IC50 Ratio (Syk/JAK) | Compound
16 | 20 | CCCCOc1ccc(Nc2nc(Nc3ccc4c(c3)OCCO4)ncc2F)cc1 [Cmpd 17]
17 | 145 | Cc1noc(COc2ccc(Nc3nc(Nc4cc(Cl)c(O)c(Cl)c4)ncc3F)cc2)n1 [Cmpd 4]
18 | 22 | Fc1cnc(Nc2ccc3c(c2)OCCO3)nc1Nn1cccc1 [Cmpd 16]
19 | 51 | CNC(=O)COc1cccc(Nc2ncc(F)c(Nc3ccc(OC)c(CN(C)C)c3)n2)c1 [Cmpd 8]
20 | 70 | NC(=O)c1ccc(Nc2ncc(F)c(NC3CCCC3)n2)cc1 [Cmpd 6]
21 | 12 | Fc1ccc(Nc2ncc(F)c(Nc3ccc4c(c3)OCCO4)n2)cc1Cl [Cmpd 24]

same assay, conditions: TABLE 2; IC50 CHMC degranulation (tryptase) / IC50 IL-4 Ramos CD23

Row | Compound | IC50 Ratio (Syk/JAK)
22 | CCN(CC)CCNC(=O)c1ccc(Nc2ncc(F)c(Nc3ccc4c(c3)NC(=O)[C@H](C)O4)n2)cc1 [Cmpd 27] | 247
23 | CNC(=O)CNC(=O)c1ccc(Nc2ncc(F)c(Nc3ccc(OC)c(Cl)c3)n2)cc1 [Cmpd 66] | 17
24 | CNC(=O)COc1cccc(Nc2ncc(F)c(Nc3cccc(OC(=O)N(C(=O)NC(C)C)C(C)C)c3)n2)c1 [Cmpd 71] | 15
25 | CN1CCN(c2ccc(Nc3ncc(F)c(NC4CCC4)n3)cc2CO)CC1 [Cmpd 39] | 59
26 | CCN(CC)CCNC(=O)c1ccc(Nc2ncc(F)c(Nc3ccc(OC)c(Cl)c3)n2)cc1 [Cmpd 58] | 21
27 | Cc1noc(COc2ccc(Nc3nc(Nc4ccc(C(N)=O)c(O)c4)ncc3F)cc2)n1 [Cmpd 78] | 13
28 | CCN(CC)CCNC(=O)c1ccc(Nc2ncc(F)c(Nc3ccc(Cl)c(Cl)c3)n2)cc1 [Cmpd 59] | 21
29 | CN1CCN(c2ccc(Nc3ncc(F)c(NC4CCCC4)n3)cc2Cl)CC1 [Cmpd 72] | 14
30 | NC(=O)c1ccc(Nc2ncc(F)c(Nc3ccc(C(N)=O)cc3)n2)cc1 [Cmpd 46] | 30
31 | O=C1Nc2cc(Nc3nc(Nc4ccc(-c5cnco5)cc4)ncc3F)ccc2OC1CCO (centres unmarked) [Cmpd 79] | 12
32 | CNC(=O)COc1cccc(Nc2ncc(F)c(Nc3ccc4c(c3)C(N(C)C(=O)OC(C)(C)C)CCO4)n2)c1 (centres unmarked) [Cmpd 86] | 10
33 | CCN(CC)CCNC(=O)c1ccc(Nc2ncc(F)c(NC3CCCC3)n2)cc1 [Cmpd 38] | 39
34 | COc1ccc(N(C)c2nc(Nc3cccc(-c4ncco4)c3)ncc2F)cc1OC [Cmpd 41] | 32
35 | CNC(=O)CNC(=O)c1ccc(Nc2ncc(F)c(Nc3ccc4c(c3)C(N)CCO4)n2)cc1 (centres unmarked) [Cmpd 53] | 24
36 | COc1ccc(Nc2ncc(F)c(Nc3ccc4c(c3)NC(=O)CO4)n2)cc1Cl [Cmpd 75] | 14
37 | N#Cc1ccc(Nc2ncc(F)c(Nc3ccc(C#N)cc3)n2)cc1 [Cmpd 54] | 24
38 | CCN(CC)CNC(=O)c1ccc(Nc2ncc(F)c(Nc3ccc4c(c3)C(=O)NC(=O)C4(C)C)n2)cc1 [Cmpd 65] | 18
39 | CCN(CC)CCNC(=O)c1ccc(Nc2ncc(F)c(Nc3cc(OC)cc(OC)c3)n2)cc1 [Cmpd 47] | 29
40 | Cc1noc(COc2ccc(Nc3nc(Nc4ccc(C(N)=O)cc4)ncc3F)cc2)n1 [Cmpd 82] | 10
41 | COc1ccc(Nc2nc(Nc3cc(Cl)c(O)c(Cl)c3)ncc2F)cc1Cl [Cmpd 80] | 11
42 | COc1cc(Nc2nc(Nc3ccc(CN)cc3)ncc2F)cc(OC)c1 [Cmpd 76] | 14
43 | CNC(=O)Cn1ncc2ccc(Nc3nc(Nc4ccc5c(c4)OCCO5)ncc3F)cc21 [Cmpd 84] | 10
44 | COc1ccc(Nc2nc(Nc3ccc(N4CCN(C)CC4)c(C(N)=O)c3)ncc2F)cc1Cl [Cmpd 50] | 26
45 | NCCNC(=O)c1cc2cc(Nc3ncc(F)c(Nc4ccc5oc(C(=O)NCCN)cc5c4)n3)ccc2o1 [Cmpd 52] | 25
46 | COc1ccc(Nc2ncc(F)c(Nc3ccc(OCc4nc(C)no4)cc3)n2)cc1Cl [Cmpd 51] | 25
47 | NC(=O)c1ccc(Nc2ncc(F)c(Nc3ccc4c(c3)NC(=O)C(CCO)O4)n2)cc1 (centres unmarked) [Cmpd 60] | 20

Results, then the molecule that gave them:

Row | IC50 Ratio (Syk/JAK) | Compound
48 | 16 | CNC(=O)COc1cccc(Nc2ncc(F)c(Nc3ccc(OC)c(C(=O)OC)c3)n2)c1 [Cmpd 68]
49 | 74 | CNC(=O)COc1cc(Nc2ncc(F)c(Nc3cccc(O)c3)n2)cc(OCC(=O)NC)c1 [Cmpd 31]
50 | 10 | CN1CCN(c2ccc(Nc3ncc(F)c(NC4CCCC4C(N)=O)n3)cc2Cl)CC1 (centres unmarked) [Cmpd 87]
51 | 11 | CNC(=N)COc1ccc(Nc2nc(Nc3ccc4c(c3)OCCO4)ncc2F)cc1 [Cmpd 81]
52 | 43 | COc1ccc(Nc2nc(Nc3ccc(N4CCN(C)CC4)c(C#N)c3)ncc2F)cc1Cl [Cmpd 36]
53 | 26 | Cc1cc(Nc2ncc(F)c(NC3CC(C)(C)N(C)C(C)(C)C3)n2)ccc1N1CCN(C)CC1 [Cmpd 49]
54 | 10 | COC(=O)CNC(=O)c1ccc(Nc2nc(Nc3cccc(O)c3)ncc2F)cc1 [Cmpd 88]
55 | 17 | COC(=O)CNC(=O)c1ccc(Nc2ncc(F)c(Nc3ccc(OCc4nc(C)no4)cc3)n2)cc1 [Cmpd 67]
56 | 31 | COc1c(C)cc(Nc2ncc(F)c(NC3=NCCN3)n2)cc1C [Cmpd 43]
57 | 30 | COc1ccc(Nc2nc(Nc3cccc(-c4ncco4)c3)ncc2F)cc1OC [Cmpd 45]
58 | 109 | Fc1cnc(Nc2cccc(-c3ncco3)c2)nc1Nc1cc(C2CC2)n[nH]1 [Cmpd 29]
59 | 32 | C[C@@H]1Oc2ccc(Nc3nc(Nc4ccc(C(N)=O)cc4)ncc3F)cc2NC1=O [Cmpd 42]
60 | 19 | COc1ccc(Nc2nc(Nc3cccc(-c4nnc(C(C)(C)C)o4)c3)ncc2F)cc1OC [Cmpd 63]
61 | 13 | Cc1cc(Nc2ncc(F)c(NC3CCCC3)n2)cnc1N1CCN(C)CC1 [Cmpd 77]
62 | 32 | CN1CCN(c2cccc(Nc3ncc(F)c(Nc4ccc5c(n4)NCCO5)n3)c2)CC1 [Cmpd 40]
63 | 55 | CCN(CC)CCNC(=O)c1ccc(Nc2ncc(F)c(Nc3ccc(OCc4nc(C)no4)cc3)n2)cc1 [Cmpd 34]
64 | 57 | CCN(CC)CCNC(=O)c1ccc(Nc2ncc(F)c(Nc3ccc4c(c3)NC(=O)C(CCO)O4)n2)cc1 (centres unmarked) [Cmpd 33]
65 | 14 | COC(=O)CNC(=O)c1ccc(Nc2ncc(F)c(Nc3ccc(C(N)=O)cc3)n2)cc1 [Cmpd 73]
66 | 21 | O=C1Nc2ccc(Nc3nc(Nc4cccc(-c5ncco5)c4)ncc3F)cc2OC1CCO (centres unmarked) [Cmpd 57]
67 | 44 | COc1cc(OC)cc(N(C)c2nc(Nc3cc(C)cc(C)c3)ncc2F)c1 [Cmpd 35]
68 | 30 | NCc1cccc(Nc2ncc(F)c(Nc3cccc(CN)c3)n2)c1 [Cmpd 44]
69 | 10 | Cc1cc(Nc2nc(Nc3ccc(C(N)=O)c(Cl)c3)ncc2F)ccc1N1CCN(C)CC1 [Cmpd 89]
70 | 10 | CNS(=O)(=O)c1ccc(Nc2ncc(F)c(Nc3ccc(OC)c(OC)c3)n2)cc1OC [Cmpd 85]
71 | 14 | O=C(Nc1ccc(Nc2ncc(F)c(NC3CCCCC3)n2)cc1)c1ccccc1 [Cmpd 74]
